Laboratory results taken from patent US20030144204A1, “Akt-based inducible survival switch” (Baylor College of Medicine, priority 2001, published 2003).

Tests used:
Jurkat.iAkt cells = experiment: Apoptosis by propidium iodide staining and flow cytometry (hypodiploid cells); assay type: cell-based, human; settings: for etoposide-induced cell death: etoposide 0.3-100 μM, 12 hours
Procedure: Jurkat.iAkt were serum starved for 24 hours followed by pre-treatment with AP22783 in 0, 2 or 10% FBS for 40 min. After incubation with apoptosis-inducing stimuli for the periods indicated, cells were harvested and washed twice in ice-cold PBS and fixed in 70% ethanol. Cells were stained in 50 μg/ml propidium iodide and 100 μg/mlRNase A for 30 min at 37° C., and hypodiploid cells were quantitated by flow cytometry using a Beckman-Coulter EPICS XL-MCL.
Jurkat.iAkt cells were given various apoptotic insults in the presence or absence of rapalogs. Initially, the protective effects of iAkt were studied on staurosporine (STS)-induced apoptosis. […] Following serum starvation for 24 hours, Jurkat.iAkt cells were treated with 0, 0.5, or 2.0 μM STS with or without AP22783 (400 nM) for 6 hours in the absence of serum. Cell death was monitored using propidium iodide (PI) staining and flow cytometry (FCM) by quantitation of subdiploid cells.
The effects of AP22783 treatment following PI3K inhibition of Jurkat.iAkt cell were studied.
Finally, the anti-apoptotic effects of iAkt on protection from direct DNA damaging agents were examined. The anti-tumor agent, etoposide (VP16), is widely used as a chemotherapeutic drug that works by inhibiting DNA topoisomerase II, which can induce apoptosis in a variety of cell types. […] Again, the experiments were carried out in two different culture conditions with low or high FBS levels.

[1] = tested on: caspase-3 and PARP in Jurkat.iAkt cells; experiment: Caspase-3 activation and PARP cleavage by immunoblotting
Procedure: Next, caspase-3 activation and PARP substrate cleavage were measured by immunoblotting.

endogenous Akt and iAkt = experiment: Akt phosphorylation in Jurkat.iAkt cells after kinase inhibitor pretreatment; assay type: cell-based, human; settings: 30 min inhibitor pretreatment, then AP22783 30 min
Procedure: Jurkat.iAkt cells were serum starved for 24 hours followed by 30 min pretreatment with PI3K inhibitors, wortmannin and LY294002, or MEK inhibitor, PD98059, as a control. After inhibitor pretreatment, AP22783 was added to the media for another 30 min to mobilize membrane recruitment of iAkt.

NF-κB = experiment: NF-κB/SEAP reporter assay in Jurkat-TAg cells; assay type: cell-based, human; settings: R0318220 1 μM
Akt (T308 or S473 site) = experiment: Western blot of Akt phosphorylation in transfected 293T cells; assay type: cell-based, human; settings: M-FRB12 plus F3-ΔPH.Akt, serum starved 24 hours, as early as 30 min after drug addition
Procedure: 293T cells seeded in 6-well plates were transiently transfected with 2 μg of different expression constructs in 6 μl FuGENE6 (Boehringer-Mannheim, Indianapolis, Ind.) in Opti-MEM-I medium for 24 hours followed by serum starvation for an additional 24 hours. Cells were then treated with different agents and harvested at different time points. After washing (2×) in ice-cold PBS, cell pellets were lysed in RIPA buffer containing protease inhibitors (CytoSignal, Irvine, Calif.). Equal amounts of protein from each sample were separated on 10% SDS-PAGE gels and transferred to PVDF membrane (Amersham Pharmacia Biotech, Piscataway, N.J.). Phospho-specific antibodies against Akt (T308 or S473 site) (Cell Signaling, Beverly, Mass.) were used for measuring Akt phosphorylation, and the signal was detected by AP-conjugated secondary antibodies (NEB, Beverly, Mass.) and CDP-Star chemiluminescence reagent (NEN life science, Boston, Mass.).
Briefly, 293T cells were transiently co-transfected with M-FRB1 2 and F3-ΔPH.Akt expression plasmids. After 24 hours, transfected cells were serum starved for another 24 hours and then treated with AP22783.

F3-ΔPH.Akt kinase = experiment: Immunoprecipitation and in vitro Akt kinase assay (GSK3α/β crosstide); assay type: biochemical; settings: Jurkat.iAkt serum starved 24 hours, treated 30 min, anti-HA immunoprecipitate
Procedure: Jurkat.iAktb were serum starved for 24 hours followed by treatment with AP22783 or serum for 30 min. Cells were then lysed in a lysis buffer provided with the Akt Kinase Assay kit (Cell Signaling, Beverly, Mass.), and Fpk3-ΔPH.AKT-E was immunoprecipitated with polyclonal anti-HA antibody. Antibody-antigen complexes were washed three times in lysis buffer and once in kinase buffer. In vitro kinase assays for Akt were performed using a GSK3α/β “crosstide”. The extent of crosstide phosphorylation was determined by anti-GSKα/β immunoblotting according to the manufacturer's protocol.
To further measure the induction of Akt enzymatic activity, Jurkat.iAkt cells were serum starved for 24 hours and thereafter treated with AP22783 or serum for 30 min. Chimeric F3-ΔPH.Akt.-kinase was immunoprecipitated with the anti-HA antibody and Akt kinase activity was measured using an in vitro kinase assay that uses a GSK3α/β “crosstide” as a substrate. The level of phosphorylated GSK3 crosstides was determined by immunoblotting with phospho-specific antibody against GSK3-α21/β9.

CN[C@@H]1C[C@H]2O[C@@](C)([C@@H]1OC)n1c3ccccc3c3c4c(c5c6ccccc6n2c5c31)C(=O)NC4 [STS, staurosporine]
apoptotic cells (Jurkat.iAkt cells; 2 μM STS, 6 hours, no serum, without AP22783, without background correction): 36%
cell death (Jurkat.iAkt cells; STS 0, 0.5 or 2.0 μM, 6 hours, no serum): induced cell death in a dose-response manner
apoptotic cells (Jurkat.iAkt cells; low-dose STS (0.5 μM), 6 hours, no serum, without AP22783): 19.4%
procaspase-3 level ([1]; STS at high-dose): significant reduction of procaspase-3
PARP cleavage ([1]; STS at low- and high-dose): dramatic PARP cleavage

COc1cccc(-c2cc(=O)c3ccccc3o2)c1N [PD98059]
endogenous Akt phosphorylation at T308 (endogenous Akt and iAkt): no discernable effect
iAkt phosphorylation (endogenous Akt and iAkt): no discernable effect

Cn1cc(C2=C(c3cn(CCCSC(=N)N)c4ccccc34)C(=O)NC2=O)c2ccccc21 [R0318220]
NF-κB activation by M-Akt plus PKC (NF-κB): complete inhibition of NF-κB

O=C(O)COc1ccccc1O [AP22783]
phosphorylation of iAkt at S473 and T308 (Akt (T308 or S473 site)): greatly stimulated
Akt kinase activity (GSK3 crosstide phosphorylation) (F3-ΔPH.Akt kinase): associated with GSK3 phosphorylation
apoptotic cells (Jurkat.iAkt cells; 2 μM STS with AP22783 400 nM, 6 hours, no serum, without background correction): 17%
PI3K inhibitor-induced cell death (Jurkat.iAkt cells; AP22783 400 nM with wortmannin or LY294002, 2% or 10% FBS, 9 hours): almost totally blocked
CH-11-triggered apoptosis (Jurkat.iAkt cells; AP22783 400 nM, 2% or 10% FBS, 6 hours): rescued cells from CH-11-triggered apoptosis
etoposide-induced cell death (Jurkat.iAkt cells; AP22783 400 nM, high FBS): reduced etoposide-induced cell death efficiently
etoposide-induced cell death (Jurkat.iAkt cells; AP22783 400 nM, low FBS): lesser, but reproducible level of protection
STS-induced toxicity (apoptosis) (Jurkat.iAkt cells; low-dose STS (0.5 μM) with AP22783 400 nM, 6 hours, no serum): fully blocked
STS-induced caspase-3 activation ([1]; with AP22783): blocked
high-dose STS-induced PARP cleavage ([1]; with AP22783): reduced
low-dose STS-induced PARP cleavage ([1]; with AP22783): blocked
